In ChEMBL document CHEMBL5316318, “Structural Modification and Pharmacological Evaluation of Substituted Quinoline-5,8-diones as Potent NSD2 Inhibitors” (J Med Chem, 2023) one finds IC50 and Papp data, which are given here for 22 molecules.

Data set [1] concerns the target T1, Histone-lysine N-methyltransferase NSD2 (Homo sapiens, UniProt O96028).
T1 sequence (O96028 whole entry): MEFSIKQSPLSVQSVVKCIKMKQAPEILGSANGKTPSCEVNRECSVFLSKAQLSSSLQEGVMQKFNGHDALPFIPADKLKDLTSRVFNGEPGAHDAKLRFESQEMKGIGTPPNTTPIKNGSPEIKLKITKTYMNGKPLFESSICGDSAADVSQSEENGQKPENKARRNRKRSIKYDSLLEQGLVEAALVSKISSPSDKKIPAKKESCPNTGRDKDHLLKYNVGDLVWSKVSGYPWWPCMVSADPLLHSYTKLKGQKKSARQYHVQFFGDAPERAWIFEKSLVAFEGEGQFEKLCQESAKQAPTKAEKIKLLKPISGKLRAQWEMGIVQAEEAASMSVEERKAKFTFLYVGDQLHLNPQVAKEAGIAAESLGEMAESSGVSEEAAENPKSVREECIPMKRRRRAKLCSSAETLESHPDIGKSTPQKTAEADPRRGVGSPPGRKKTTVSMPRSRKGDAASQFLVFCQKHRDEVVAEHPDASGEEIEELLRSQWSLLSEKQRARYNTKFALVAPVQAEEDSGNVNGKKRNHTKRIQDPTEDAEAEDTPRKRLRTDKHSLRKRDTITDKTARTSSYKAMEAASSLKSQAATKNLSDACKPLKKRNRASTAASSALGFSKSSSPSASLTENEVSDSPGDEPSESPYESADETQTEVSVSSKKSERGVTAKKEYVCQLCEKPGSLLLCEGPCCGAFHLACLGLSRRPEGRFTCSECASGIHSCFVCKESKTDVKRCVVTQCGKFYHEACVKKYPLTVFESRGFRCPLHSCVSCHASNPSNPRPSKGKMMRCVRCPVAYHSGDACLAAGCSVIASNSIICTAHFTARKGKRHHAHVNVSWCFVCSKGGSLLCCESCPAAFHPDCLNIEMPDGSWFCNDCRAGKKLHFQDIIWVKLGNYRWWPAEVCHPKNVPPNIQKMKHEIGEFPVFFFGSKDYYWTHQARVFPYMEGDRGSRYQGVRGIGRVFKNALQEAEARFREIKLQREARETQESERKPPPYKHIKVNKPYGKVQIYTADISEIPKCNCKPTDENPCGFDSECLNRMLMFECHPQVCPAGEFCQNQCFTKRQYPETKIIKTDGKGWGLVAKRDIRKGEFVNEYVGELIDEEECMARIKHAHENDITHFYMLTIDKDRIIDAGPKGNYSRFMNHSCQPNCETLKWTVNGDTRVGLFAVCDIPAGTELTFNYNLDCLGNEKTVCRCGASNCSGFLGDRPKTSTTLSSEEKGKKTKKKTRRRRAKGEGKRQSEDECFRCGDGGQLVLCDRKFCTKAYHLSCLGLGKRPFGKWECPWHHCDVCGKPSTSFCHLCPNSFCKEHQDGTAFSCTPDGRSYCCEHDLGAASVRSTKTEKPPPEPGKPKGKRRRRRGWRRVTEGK
The data set can be described thus: Inhibition of recombinant human NSD2 (941 to 1240 residues) using SAM as substrate incubated for 3 hrs by AlphaLISA assay.

Data set [2] concerns KMS-11. The data set can be described thus: Antiproliferative activity against human KMS-11 cells assessed as inhibition of cell growth incubated for 6 days by CCK-8 assay. Format: functional, cell-based. Conditions: KMS-11, 144 h.
Data set [3] can be described thus: Apparent permeability coefficient, Papp in MDCK cells. In kind it is ADME, cell-based, Canis lupus familiaris. Conditions: dog.
Data set [4] deals with Histone-lysine N-methyltransferase EZH2 (Homo sapiens, UniProt Q15910). The data set can be described thus: Inhibition of EZH2 (unknown origin) using SAM as substrate preincubated for 10 mins followed by substrate addition and measured after 4 hrs by HTRF analysis. (TR-FRET usually uses a lanthanide donor and a delayed reading to cut background.)
Histone-lysine N-methyltransferase EZH2, sequence (Q15910 whole entry, the tested form may be a part): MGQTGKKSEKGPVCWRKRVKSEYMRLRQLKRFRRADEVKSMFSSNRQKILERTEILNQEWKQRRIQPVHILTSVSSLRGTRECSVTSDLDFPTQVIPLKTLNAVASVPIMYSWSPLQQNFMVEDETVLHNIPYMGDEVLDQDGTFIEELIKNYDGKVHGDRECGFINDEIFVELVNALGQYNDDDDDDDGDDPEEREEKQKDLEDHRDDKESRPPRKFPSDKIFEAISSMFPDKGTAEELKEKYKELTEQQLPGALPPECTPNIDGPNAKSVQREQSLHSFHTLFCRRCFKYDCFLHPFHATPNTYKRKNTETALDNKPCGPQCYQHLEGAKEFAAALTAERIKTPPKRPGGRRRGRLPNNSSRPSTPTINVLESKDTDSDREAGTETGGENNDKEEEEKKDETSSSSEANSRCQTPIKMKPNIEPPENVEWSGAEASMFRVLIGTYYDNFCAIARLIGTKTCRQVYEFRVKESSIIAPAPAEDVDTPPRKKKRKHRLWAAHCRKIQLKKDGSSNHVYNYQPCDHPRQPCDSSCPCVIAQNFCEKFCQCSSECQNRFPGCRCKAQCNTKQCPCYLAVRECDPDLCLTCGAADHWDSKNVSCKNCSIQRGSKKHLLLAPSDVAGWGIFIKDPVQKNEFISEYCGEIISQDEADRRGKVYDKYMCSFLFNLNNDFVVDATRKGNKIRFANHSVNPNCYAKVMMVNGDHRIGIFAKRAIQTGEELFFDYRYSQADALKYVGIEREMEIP
In data set [5] the target is T1, Histone-lysine N-methyltransferase NSD2. The data set can be described thus: Inhibition of human NSD2 (934 to 1241 residues) expressed in Escherichia coli BL21 (DE3) using [3H]-SAM as substrate incubated for 1 hr by TopCount radioactivity counter.
The target is the same in data set [6]. The experiment in a line: Inhibition of human MMSET (973 to 1203 residues) expressed in Escherichia coli BL21 (DE3) using S-adenosyl-methionine as substrate incubated for 60 mins by AlphaScreen assay.

Usually IC50 stands for the point on the concentration scale where inhibition reaches its midpoint. By Papp is commonly meant the rate of passage across a membrane or cell layer, normalised by area and donor concentration.

Where only a bound is given, the exact number is not on record here.

In the case of `O=C1C(Cl)=C(NC23CC(NC(=O)C4CC4(F)F)(C2)C3)C(=O)c2ncccc21` (stereo unspecified), the half-maximal inhibitory concentration (IC50) in data set [1] came out at 410 nM.
On to `CC(F)(F)C(=O)NCCC1CN(C2=C(Cl)C(=O)c3ncccc3C2=O)C1`, for which, in data set [1], the IC50 stood at 380 nM.
Still for that read-out and setting: the same measure for `CC(C)(O)[C@H](F)CNC1=C(Cl)C(=O)c2ccc(N3C[C@@H](O)[C@H](O)C3)nc2C1=O`: 1220 nM.
Take `CC#CC(=O)NC12CC(NC3=C(Cl)C(=O)c4cccnc4C3=O)(C1)C2`: the half-inhibitory concentration (IC50) in data set [1] was found to be 250 nM; in data set [2], 2210 nM; in data set [4], 1040 nM. Besides, the Papp in data set [3] is 42 ×10⁻⁶ cm/s.
Take `O=C1C(Cl)=C(NCCc2c[nH]c3ccccc23)C(=O)c2ncccc21`: in data set [1], the IC50 is 450 nM.
In the case of `C[C@@](O)(C(=O)NC12CC(NC3=CC(=O)c4ncccc4C3=O)(C1)C2)C(F)(F)F`, the IC50 in data set [1] came out at 1290 nM.
For `Nc1ncnc2c1ncn2[C@@H]1O[C@H](C[C@@H](N)CC[C@H](N)C(=O)O)[C@@H](O)[C@H]1O` [SINEFUNGIN], the half-maximal inhibitory concentration (IC50) in data set [5] turned out to be 79000 nM.
Turning to `CC(C)(O)[C@H](F)CNC1=C(Cl)C(=O)c2ccc(Cl)nc2C1=O`, the figures for the IC50 in data set [1] and in data set [2] were 250 nM and 6070 nM, respectively. Further, in data set [3], the Papp was 29 ×10⁻⁶ cm/s.
On to `CC#CC(=O)NCCC1CCN(C2=C(Cl)C(=O)c3ncccc3C2=O)CC1`, for which, in data set [1], the half-maximal inhibitory concentration (IC50) stood at 490 nM.
The same measure, in the same setting: the value for `CC#CC(=O)NCCC1CCN(C2=C(Cl)C(=O)c3cccnc3C2=O)CC1` was 1710 nM; that for `CC(F)(F)C(=O)NC1CN(C2=C(Cl)C(=O)c3cccnc3C2=O)C1` was 470 nM.
Consider `CCCN[C@@H](CC[C@H](N)C(=O)O)C[C@H]1O[C@@H](n2cnc3c(N)ncnc32)[C@H](O)[C@@H]1O`, for which, in data set [6], half-maximal inhibition (IC50) was put at 3300 nM.
`CC(F)(F)C(=O)NC1CN(C2=C(Cl)C(=O)c3ncccc3C2=O)C1`: the 50% inhibitory concentration (IC50) in data set [1] was determined as 360 nM.
The same measure, in the same setting: the value for `CC#CC(=O)N1CCC2(CC1)CN(C1=C(Cl)C(=O)c3ncccc3C1=O)C2` was 2480 nM; that for `CC#CC(=O)N1CCC2(CC1)CN(C1=C(Cl)C(=O)c3cccnc3C1=O)C2` was 760 nM.
Take `CC(C)(O)[C@H](F)CNC1=C(Cl)C(=O)c2ccc(N3CC(O)C3)nc2C1=O`: the IC50 in data set [1] is over 10000 nM.
As for `CC(F)(F)C(=O)NC12CC(NC3=C(Cl)C(=O)c4cccnc4C3=O)(C1)C2`, the IC50 came to 300 nM in data set [1] and 2400 nM in data set [2]. Besides, in data set [3], the Papp was 44.4 ×10⁻⁶ cm/s.
For `CC(F)(F)C(=O)NCCC1CCN(C2=C(Cl)C(=O)c3ncccc3C2=O)CC1`, the 50% inhibitory concentration (IC50) in data set [1] was determined as 1350 nM.
Consider `O=C1C(NCCN2CCOCC2)=C(Cl)C(=O)c2ncccc21`, for which the IC50 in data set [1] came out at 490 nM.
Turning to `O=C1C(Cl)=C(NCCC2(O)CCN(C(=O)C3CC3(F)F)CC2)C(=O)c2ncccc21` (stereo unspecified), the IC50 in data set [1] came out at 200 nM; in data set [2] it was 3940 nM. In addition, the Papp in data set [3] is 21.5 ×10⁻⁶ cm/s.
With `CC(F)(F)C(=O)N1CCC2(CC1)CN(C1=C(Cl)C(=O)c3ncccc3C1=O)C2`, in data set [1], the concentration for half-maximal inhibition (IC50) worked out at 3050 nM.
Still for that read-out and setting: the same measure for `CC(F)(F)C(=O)N1CCC2(CC1)CN(C1=C(Cl)C(=O)c3cccnc3C1=O)C2`: 330 nM.
